# Molecular target: T1, ENaC (Homo sapiens, UniProt P37088+P51168+P51170)
# T1 construct: host or cells: primary human bronchial epithelial cells (HBECs) differentiated at an air-liquid interface
# T1 sequence (P37088 1-669): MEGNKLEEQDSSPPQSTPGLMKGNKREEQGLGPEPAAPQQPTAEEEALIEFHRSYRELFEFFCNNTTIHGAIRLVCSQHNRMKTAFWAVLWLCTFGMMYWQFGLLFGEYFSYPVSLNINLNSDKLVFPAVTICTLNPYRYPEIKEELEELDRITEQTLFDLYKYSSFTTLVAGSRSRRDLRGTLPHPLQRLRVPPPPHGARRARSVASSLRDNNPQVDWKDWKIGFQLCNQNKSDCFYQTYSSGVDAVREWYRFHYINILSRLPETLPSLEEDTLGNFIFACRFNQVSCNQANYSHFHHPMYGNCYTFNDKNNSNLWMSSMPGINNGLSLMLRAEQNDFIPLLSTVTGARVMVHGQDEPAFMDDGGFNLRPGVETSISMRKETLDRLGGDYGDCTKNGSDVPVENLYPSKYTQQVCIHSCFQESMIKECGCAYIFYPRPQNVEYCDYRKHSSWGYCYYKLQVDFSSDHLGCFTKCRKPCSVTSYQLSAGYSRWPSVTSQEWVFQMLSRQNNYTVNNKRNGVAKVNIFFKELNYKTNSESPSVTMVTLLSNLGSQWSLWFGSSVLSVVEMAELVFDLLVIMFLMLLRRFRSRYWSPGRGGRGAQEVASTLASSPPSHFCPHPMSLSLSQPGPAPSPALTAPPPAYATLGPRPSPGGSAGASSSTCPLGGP
# T1 sequence (P51168 1-640): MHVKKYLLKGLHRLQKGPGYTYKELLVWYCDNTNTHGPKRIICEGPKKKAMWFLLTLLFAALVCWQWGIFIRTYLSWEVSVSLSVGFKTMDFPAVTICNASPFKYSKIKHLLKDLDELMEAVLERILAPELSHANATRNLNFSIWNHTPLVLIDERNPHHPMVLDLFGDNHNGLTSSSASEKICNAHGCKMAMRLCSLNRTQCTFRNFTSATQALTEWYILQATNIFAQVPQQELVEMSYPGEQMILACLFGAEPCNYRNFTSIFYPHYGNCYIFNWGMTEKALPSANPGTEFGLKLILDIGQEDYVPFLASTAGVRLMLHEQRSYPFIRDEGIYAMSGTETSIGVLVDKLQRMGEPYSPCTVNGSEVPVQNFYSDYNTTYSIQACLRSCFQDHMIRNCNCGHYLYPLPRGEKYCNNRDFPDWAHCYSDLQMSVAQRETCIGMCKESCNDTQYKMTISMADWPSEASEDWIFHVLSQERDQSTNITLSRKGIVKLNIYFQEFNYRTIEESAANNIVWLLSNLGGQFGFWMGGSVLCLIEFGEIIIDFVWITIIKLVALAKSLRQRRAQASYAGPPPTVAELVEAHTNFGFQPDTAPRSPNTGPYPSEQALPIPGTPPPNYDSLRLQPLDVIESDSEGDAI
# T1 sequence (P51170 1-649): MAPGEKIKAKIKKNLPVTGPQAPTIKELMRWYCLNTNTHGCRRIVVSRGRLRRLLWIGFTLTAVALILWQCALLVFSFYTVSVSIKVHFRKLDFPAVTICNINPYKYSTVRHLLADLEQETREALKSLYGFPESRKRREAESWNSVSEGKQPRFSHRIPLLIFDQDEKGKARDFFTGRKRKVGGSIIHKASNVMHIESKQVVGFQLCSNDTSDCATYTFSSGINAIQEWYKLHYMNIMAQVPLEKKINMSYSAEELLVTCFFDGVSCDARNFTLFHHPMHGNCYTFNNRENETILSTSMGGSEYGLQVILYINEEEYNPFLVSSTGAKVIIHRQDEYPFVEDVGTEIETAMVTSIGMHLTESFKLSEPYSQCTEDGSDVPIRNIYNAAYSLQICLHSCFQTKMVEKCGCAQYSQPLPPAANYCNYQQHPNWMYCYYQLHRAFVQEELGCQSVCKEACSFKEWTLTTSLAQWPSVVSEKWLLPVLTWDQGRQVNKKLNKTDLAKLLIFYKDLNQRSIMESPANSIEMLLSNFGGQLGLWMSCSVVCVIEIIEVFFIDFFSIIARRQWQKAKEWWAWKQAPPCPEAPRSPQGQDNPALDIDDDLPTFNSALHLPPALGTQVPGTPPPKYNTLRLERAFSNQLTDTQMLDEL
# Assay: Short circuit current assay to determine ENaC blocker potency in human bronchial epithelial cells
# Type: cell-based
# Conditions: 50% inhibition of total amiloride-sensitive ISC, HBECs, apical addition; read-out: Averages. ENaC Ic50 μm Avg
# Protocol: Example 27—Short Circuit Current Assay to Determine ENaC Blocker Potency in Human Bronchial Epithelial Cells
# Human bronchial epithelial cells (HBECs) (Lonza, UK) were cultured using a modification of the method described by Coote et al, (2008). Cells were seeded into plastic T-75 flasks and grown in Bronchial Epithelial Cell Growth Medium (BEGM) (Lonza, UK) supplemented with bovine pituitary extract (52 ng/mL), hydrocortisone (0.5 μg/mL), human recombinant Epidermal Growth Factor (0.5 ng/mL), epinephrine (0.5 ng/mL), transferrin (10 ng/mL), insulin (5 ng/mL), retinoic acid (0.1 ng/mL), triiodothyronine (6.5 ng/mL), gentamycin (50 μg/mL) and amphotericin-B (50 ng/mL). Medium was changed every 48 hours until cells were 90% confluent. Cells were then passaged and seeded (8.25×10^5 cells/insert) onto polycarbonate Snapwell™ inserts (Costar, UK) in differentiation media containing 50% DMEM in BGEM with the same supplements as above but without triiodothyronine and a final retinoic acid concentration of 50 nM (all-trans retinoic acid; Sigma-Aldrich, UK). Cells were maintained submerged for the first 7 days in culture after which time they were exposed to an apical air interface for the remainder of the culture period. From the first day of establishment of an ALI, HBEC were fed with a DMEM:HAMS F-12 (1:1) media containing 2% Ultroser G (Pall BioSepra, France) with gentamycin (50 μg/mL) and amphotericin B (50 ng/mL). Cells were used for short-circuit current assay between days 14-21 after the establishment of the ALI. At all stages of culture, cells were maintained at 37′C in 5% CO2 in an air incubator.
# Short-Circuit Current (ISC) Measurements
# Snapwell inserts were mounted in Costar Vertical Diffusion Chambers (Costar, UK) and were bathed with continuously gassed Ringer solution (5% CO2 in O2; pH 7.4) maintained at 37° C. containing (in mM): 120 NaCl, 25 NaHCO3, 3.3 KH2PO4, 0.8 K2HPO4, 1.2 CaCl2, 1.2 MgCl2 and 10 glucose. The solution osmolarity was always between 280-300 mOsm/kg H2O for all physiological salt solutions used. Cells were voltage clamped to 0 mV (model EVC4000, WPI). Transepithelial resistance (RT) was measured by applying a 2 mV pulse at 30 s intervals and calculating RT by Ohm's law. Data were recorded using a PowerLab workstation (ADInstruments, UK).
# ENaC blocker compounds were added to the apical chamber from a 1000-fold stock solution (prepared in DMSO) to achieve a cumulative concentration response in terms of the inhibition of the basal ISC. At the completion of the concentration response, a supra-maximal concentration of amiloride (10 μM) was added. The concentration of test compound that induced a 50% inhibition of the total amiloride-sensitive ISC (IC50) was calculated using GraphPad Prism v6.05.
row,IC50,Compound
1,1 nM,"CCn1c(CNC(=O)c2nc(Br)cnc2N)[n+](CC)c2ccc(OC)cc21.O=C[O-] [Example 2, 2-{[(3-amino-6-bromopyrazin-2-yl)formamido]methyl}-1,3-diethyl-6-methoxy-1H-1,3-benzodiazol-3-ium formate]"
2,4 nM,"CCn1c(CNC(=O)c2nc(Br)cnc2N)[n+](CCOCCOCCO)c2ccc(OC)cc21.O=C[O-] [Example 4, 2-{[(3-amino-6-bromopyrazin-2-yl)formamido]methyl}-1-ethyl-3-{2-[2-(2-hydroxyethoxy)ethoxy]ethyl}-6-methoxy-1H-1,3-benzodiazol-3-ium formate]"
3,2 nM,"CCn1c(CNC(=O)c2nc(Br)cnc2N)[n+](CC)c2ccc(-c3cnn(C4CCN(C(=N)N)CC4)c3)cc21.O=CO.O=C[O-] [Example 22, 2-{[(3-amino-6-bromopyrazin-2-yl)formamido]methyl}-6-[1-(1-carbamimidoylpiperidin-4-yl)-1H-pyrazol-4-yl]-1,3-diethyl-1H-1,3-benzodiazol-3-ium formic acid formate]"
4,19 nM,"CCn1c(CNC(=O)c2nc(Br)cnc2N)[n+](C)c2ccc(F)cc21.O=C[O-] [Example 12, 2-{[(3-amino-6-bromopyrazin-2-yl)formamido]methyl}-1-ethyl-6-fluoro-3-methyl-1H-1,3-benzodiazol-3-ium formate]"
5,1 nM,"CCn1c(CNC(=O)c2nc(Br)cnc2N)[n+](CC)c2ccc(-c3cnn(C4CCNCC4)c3)cc21.Cl.[I-] [Example 21, 2-{[(3-amino-6-bromopyrazin-2-yl)formamido]methyl}-1,3-diethyl-6-[1-(piperidin-4-yl)-1H-pyrazol-4-yl]-1H-1,3-benzodiazol-3-ium hydrochloride iodide]"

row,Compound,IC50
1,"CCn1c(CNC(=O)c2nc(Br)cnc2N)[n+](CC)c2ccc(-c3cnn(C4CCN(C(=O)OC(C)(C)C)CC4)c3)cc21.[I-] [Example 20, 2-{[(3-amino-6-bromopyrazin-2-yl)formamido]methyl}-6-(1-{1-[(tert-butoxy)carbonyl]piperidin-4-yl}-1H-pyrazol-4-yl)-1,3-diethyl-1H-1,3-benzodiazol-3-ium iodide]",1 nM

# Reference: patent publication US10759785B2, “Compounds” (ENTERPRISE THERAPEUTICS LIMITED, priority 2016, dated 2020)
